Source: article PMC6473903, “Isoform-Specific NO Synthesis by Arabidopsis thaliana Nitrate Reductase” (Plants, 2019)

Assays:
[1] = biological target: T1, re-constituted (composite) NIA2 (Arabidopsis thaliana, UniProt P11035); experiment: NO analyzer, inhibition of nitrite reduction (NO production); format: biochemical
T1 construct: both from E. coli, IMAC purified; with Nitrate reductase [NADH]
T1 sequence (P11035 1-625): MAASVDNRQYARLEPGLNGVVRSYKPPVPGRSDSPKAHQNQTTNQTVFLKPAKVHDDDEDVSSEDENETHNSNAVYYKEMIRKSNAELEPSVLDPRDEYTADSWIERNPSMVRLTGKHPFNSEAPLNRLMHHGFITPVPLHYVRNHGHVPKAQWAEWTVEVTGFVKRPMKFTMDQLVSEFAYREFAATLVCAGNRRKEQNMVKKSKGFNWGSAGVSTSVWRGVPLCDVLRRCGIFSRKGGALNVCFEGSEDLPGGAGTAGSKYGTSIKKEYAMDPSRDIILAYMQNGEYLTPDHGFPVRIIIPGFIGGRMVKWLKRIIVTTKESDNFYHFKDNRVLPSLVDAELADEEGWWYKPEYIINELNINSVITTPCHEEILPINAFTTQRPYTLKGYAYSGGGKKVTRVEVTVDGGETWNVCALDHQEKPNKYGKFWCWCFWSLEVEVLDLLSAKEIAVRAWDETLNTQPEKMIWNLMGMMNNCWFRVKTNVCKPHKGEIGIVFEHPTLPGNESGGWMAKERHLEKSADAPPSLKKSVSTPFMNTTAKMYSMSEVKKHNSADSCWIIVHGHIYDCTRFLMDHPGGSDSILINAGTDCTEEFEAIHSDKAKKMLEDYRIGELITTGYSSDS
T1 sequence (P11035 626-917 partner): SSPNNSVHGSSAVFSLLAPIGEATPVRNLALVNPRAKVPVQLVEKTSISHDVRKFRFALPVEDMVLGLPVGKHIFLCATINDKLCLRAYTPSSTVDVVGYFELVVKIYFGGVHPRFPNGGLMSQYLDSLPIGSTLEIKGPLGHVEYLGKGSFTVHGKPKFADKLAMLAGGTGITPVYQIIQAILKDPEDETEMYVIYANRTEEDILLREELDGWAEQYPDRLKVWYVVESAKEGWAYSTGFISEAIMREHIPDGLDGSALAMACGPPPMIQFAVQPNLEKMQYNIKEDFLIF

[2] = biological target: T2, re-constituted (composite) NIA1 (Arabidopsis thaliana, UniProt P11832); experiment: as above; format: biochemical
T2 construct: both from E. coli, IMAC purified; with Nitrate reductase [NADH]
T2 sequence (P11832 1-627): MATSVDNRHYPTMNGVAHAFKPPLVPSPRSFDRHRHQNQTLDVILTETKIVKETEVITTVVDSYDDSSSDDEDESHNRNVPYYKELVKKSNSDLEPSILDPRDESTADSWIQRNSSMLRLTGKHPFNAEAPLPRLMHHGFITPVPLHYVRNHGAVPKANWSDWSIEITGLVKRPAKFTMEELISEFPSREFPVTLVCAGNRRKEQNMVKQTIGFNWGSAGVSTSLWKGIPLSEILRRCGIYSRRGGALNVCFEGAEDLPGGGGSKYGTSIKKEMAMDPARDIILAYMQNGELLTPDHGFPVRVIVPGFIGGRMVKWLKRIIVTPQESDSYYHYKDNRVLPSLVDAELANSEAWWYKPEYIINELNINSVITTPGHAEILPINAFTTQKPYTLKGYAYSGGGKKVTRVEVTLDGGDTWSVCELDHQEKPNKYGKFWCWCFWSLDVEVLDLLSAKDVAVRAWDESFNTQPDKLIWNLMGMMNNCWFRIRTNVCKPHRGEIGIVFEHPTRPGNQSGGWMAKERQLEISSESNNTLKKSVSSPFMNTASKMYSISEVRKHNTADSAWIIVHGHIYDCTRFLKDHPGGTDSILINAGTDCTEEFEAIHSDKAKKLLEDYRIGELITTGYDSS
T2 sequence (P11832 628-917 partner): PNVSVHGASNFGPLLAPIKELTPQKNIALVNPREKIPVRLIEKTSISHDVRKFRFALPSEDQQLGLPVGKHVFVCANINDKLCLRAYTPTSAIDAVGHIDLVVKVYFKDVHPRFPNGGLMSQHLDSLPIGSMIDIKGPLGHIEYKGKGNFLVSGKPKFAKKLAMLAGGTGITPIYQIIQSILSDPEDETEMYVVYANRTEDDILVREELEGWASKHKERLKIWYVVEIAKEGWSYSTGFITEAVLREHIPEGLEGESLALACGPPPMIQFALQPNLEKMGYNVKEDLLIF

[3] = biological target: T3, Arabidopsis thaliana NIA1-Mo-heme fragment (residues 1-627) (Arabidopsis thaliana) (UniProt P11832)
T3 sequence: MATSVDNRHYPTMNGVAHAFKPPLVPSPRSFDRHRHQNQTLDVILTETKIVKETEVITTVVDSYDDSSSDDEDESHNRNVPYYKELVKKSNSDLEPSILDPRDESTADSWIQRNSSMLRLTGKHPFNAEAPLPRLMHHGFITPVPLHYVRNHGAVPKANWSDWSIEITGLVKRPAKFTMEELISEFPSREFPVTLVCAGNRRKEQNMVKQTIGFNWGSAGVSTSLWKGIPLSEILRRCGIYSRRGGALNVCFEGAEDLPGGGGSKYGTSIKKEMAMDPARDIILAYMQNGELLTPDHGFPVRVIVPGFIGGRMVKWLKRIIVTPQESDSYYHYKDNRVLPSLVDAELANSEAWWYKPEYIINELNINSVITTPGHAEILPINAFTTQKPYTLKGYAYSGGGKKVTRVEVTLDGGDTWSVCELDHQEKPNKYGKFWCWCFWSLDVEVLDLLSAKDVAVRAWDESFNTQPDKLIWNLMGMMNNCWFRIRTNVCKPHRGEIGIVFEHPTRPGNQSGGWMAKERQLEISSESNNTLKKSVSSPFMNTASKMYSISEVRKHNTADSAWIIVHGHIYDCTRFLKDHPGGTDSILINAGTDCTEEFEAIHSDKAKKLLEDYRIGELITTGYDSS

[4] = biological target: T4, Arabidopsis thaliana NIA2-Mo-heme fragment (residues 1-625) (Arabidopsis thaliana) (UniProt P11035)
T4 sequence: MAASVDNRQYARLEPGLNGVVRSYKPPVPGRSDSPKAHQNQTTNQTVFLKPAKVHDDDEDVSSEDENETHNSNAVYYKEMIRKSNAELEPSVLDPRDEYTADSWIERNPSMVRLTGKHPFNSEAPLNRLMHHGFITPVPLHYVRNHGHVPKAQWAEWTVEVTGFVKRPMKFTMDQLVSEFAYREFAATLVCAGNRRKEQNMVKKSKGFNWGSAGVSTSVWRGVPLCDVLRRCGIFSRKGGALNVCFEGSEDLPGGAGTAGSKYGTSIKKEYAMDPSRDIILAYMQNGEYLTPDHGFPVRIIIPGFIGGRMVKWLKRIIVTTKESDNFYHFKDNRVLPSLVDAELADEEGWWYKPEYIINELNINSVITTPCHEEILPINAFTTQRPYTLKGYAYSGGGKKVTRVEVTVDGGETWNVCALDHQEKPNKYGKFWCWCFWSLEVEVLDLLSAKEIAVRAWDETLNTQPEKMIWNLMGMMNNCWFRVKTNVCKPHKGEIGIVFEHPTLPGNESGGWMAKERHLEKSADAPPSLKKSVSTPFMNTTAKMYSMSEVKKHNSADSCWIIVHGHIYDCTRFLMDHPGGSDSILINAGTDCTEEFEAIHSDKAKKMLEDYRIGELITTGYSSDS

Molecule: O=[N+]([O-])O [nitrate]
- IC50 [1]: 36 ± 2.7 µM
- IC50 [2]: 12 ± 1.7 µM

B1: Arabidopsis thaliana NIA1-FAD fragment (residues 628-917) (domain or fragment)
chain: PNVSVHGASNFGPLLAPIKELTPQKNIALVNPREKIPVRLIEKTSISHDVRKFRFALPSEDQQLGLPVGKHVFVCANINDKLCLRAYTPTSAIDAVGHIDLVVKVYFKDVHPRFPNGGLMSQHLDSLPIGSMIDIKGPLGHIEYKGKGNFLVSGKPKFAKKLAMLAGGTGITPIYQIIQSILSDPEDETEMYVVYANRTEDDILVREELEGWASKHKERLKIWYVVEIAKEGWSYSTGFITEAVLREHIPEGLEGESLALACGPPPMIQFALQPNLEKMGYNVKEDLLIF
- apparent kcat of the steady-state NADH:nitrate assay of re-constituted NIA1 (100 nM NIA1-Mo-heme + 5 µM NIA1-FAD, ratio 1:50) [3]: 9.6 s⁻¹

B2: Arabidopsis thaliana NIA2-FAD fragment (residues 626-917) (domain or fragment)
chain: SSPNNSVHGSSAVFSLLAPIGEATPVRNLALVNPRAKVPVQLVEKTSISHDVRKFRFALPVEDMVLGLPVGKHIFLCATINDKLCLRAYTPSSTVDVVGYFELVVKIYFGGVHPRFPNGGLMSQYLDSLPIGSTLEIKGPLGHVEYLGKGSFTVHGKPKFADKLAMLAGGTGITPVYQIIQAILKDPEDETEMYVIYANRTEEDILLREELDGWAEQYPDRLKVWYVVESAKEGWAYSTGFISEAIMREHIPDGLDGSALAMACGPPPMIQFAVQPNLEKMQYNIKEDFLIF
- apparent kcat of the steady-state NADH:nitrate assay of re-constituted NIA2 (100 nM NIA2-Mo-heme + 5 µM NIA2-FAD, ratio 1:50) [4]: 13.4 s⁻¹
